# According to patent US20220267445A1, “Methods and Compositions for Determining Susceptibility to Treatment with Checkpoint Inhibitors” (Novocure GmbH, priority 2021, published 2022):
# Experiments:
# [1] = tested on: U87MG, LN428 and LN827 GBM cells; assay: TTFields-induced cytosolic micronuclei clusters with cGAS and AIM2 recruitment (immunofluorescence, confocal); format: cell-based, human; details: ribociclib 4.5 μM
# Protocol: FIG. 1C, FIG. 1D, FIG. 1E, and FIG. 1F show exemplary confocal images with z stack showing immunofluorescent staining for cGAS, AIM2, and LAMINA/C with DAPI counter-staining in LN428 GBM cells that were pretreated with either the vehicle (FIG. 1C, FIG. 1E) or ribociclib (4.5 μM) (FIG. 1D, FIG. 1F) to induce G1 arrest, then non-treated (FIG. 1C, FIG. 1D) or treated with TTFields for 24 hours (FIG. 1E,
# FIG. 1G provides an exemplary bar graph showing percentages of cells with large cytosolic micronuclei clusters with cGAS and AIM2 recruitment being dependent on TTFields in the 3 indicated GBM cell lines treated as described with respect to FIG. 1C, FIG. 1D, FIG. 1E, and FIG. 1F;
# To address this question, cells were pretreated for 24 hours prior to and during a 24 hour exposure to TTFields with ribociclib, a potent inhibitor of cyclin-dependent kinases 4 and 6, to induce G1 arrest^31 (FIG. 1H).
# Cells grown on cover slips were fixed with 4% paraformaldehyde for 30 min at 4° C., incubated overnight at 4° C. with different combinations of primary antibodies (dilution 1:500) against indicated antigens and then for 2 hours at room temperature with appropriate fluorochrome-conjugated secondary antibodies, (dilution 1:500). Labeled cells were counterstained with DAPI (Thermo Fisher, Cat #D1306) at 1 μgm/ml and images captured and analyzed, using a Zeiss 800 inverted confocal microscope. […]
# LN428 cells = assay: DNA content analysis by propidium iodide (PI) staining; format: cell-based, human; details: ribociclib 4.5 μM, 0 and 24 hours
compound,measurement,setting,value
CN(C)C(=O)c1cc2cnc(Nc3ccc(N4CCNCC4)cn3)nc2n1C1CCCC1 [ribociclib],"percentage of cells with cGAS and AIM2-recruited micronuclei clusters after TTFields, G1-arrested cells compared to cycling cells","[1]; 24 hours prior to and during 24 hour TTFields (200 kHz), all 3 lines",consistently decreased
same,"cluster formation, ribociclib treatment alone",[1]; no TTFields,did not increase
same,G1-S arrest,LN428 cells,effective G1-S arrest
